In patent publication US20230080054A1 (ILDONG PHARMACEUTICAL CO., LTD., priority 2021, published 2023):

Legend:
human ANO6 [1] = molecular target: T1, human ANO6 (Homo sapiens, UniProt Q4KMQ2); assay: YFP quenching assay (ANO6 ion channel activity); format: cell-based; settings: 10 μM ionomycin; for inhibition at 1 µM: test compound 1 μM, read-out: Inhibition Level 1 μM; for inhibition at 30 µM: test compound 30 μM, read-out: Inhibition Level 30 μM
T1 construct: expressed in transfected cells
T1 sequence (Q4KMQ2 1-931 isoform Q4KMQ2-2): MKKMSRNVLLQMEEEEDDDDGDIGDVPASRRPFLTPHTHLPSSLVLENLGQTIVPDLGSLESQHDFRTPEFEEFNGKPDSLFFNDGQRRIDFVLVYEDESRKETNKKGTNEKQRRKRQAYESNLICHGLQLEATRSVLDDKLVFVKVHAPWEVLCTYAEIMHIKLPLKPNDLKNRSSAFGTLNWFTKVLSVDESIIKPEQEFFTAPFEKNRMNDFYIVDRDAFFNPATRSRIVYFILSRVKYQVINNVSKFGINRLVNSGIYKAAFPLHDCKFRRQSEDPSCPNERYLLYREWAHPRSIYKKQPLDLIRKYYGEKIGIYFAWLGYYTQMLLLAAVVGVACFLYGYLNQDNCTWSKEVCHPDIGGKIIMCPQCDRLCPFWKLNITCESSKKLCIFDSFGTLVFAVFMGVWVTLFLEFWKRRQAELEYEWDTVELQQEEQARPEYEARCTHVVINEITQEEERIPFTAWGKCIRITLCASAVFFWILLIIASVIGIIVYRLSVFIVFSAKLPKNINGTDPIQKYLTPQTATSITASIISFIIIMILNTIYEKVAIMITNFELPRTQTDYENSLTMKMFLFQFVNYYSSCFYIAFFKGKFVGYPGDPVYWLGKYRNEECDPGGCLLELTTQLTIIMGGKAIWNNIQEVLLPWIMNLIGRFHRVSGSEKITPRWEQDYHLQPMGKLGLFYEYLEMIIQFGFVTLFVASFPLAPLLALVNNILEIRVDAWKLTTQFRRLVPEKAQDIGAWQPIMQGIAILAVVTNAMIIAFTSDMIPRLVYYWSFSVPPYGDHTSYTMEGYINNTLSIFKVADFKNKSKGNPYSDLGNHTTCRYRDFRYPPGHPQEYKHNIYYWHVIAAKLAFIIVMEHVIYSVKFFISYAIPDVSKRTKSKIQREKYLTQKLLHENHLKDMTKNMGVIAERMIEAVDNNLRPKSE
In short: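 FRT cells stably expressing human ANO6 and YFP-H148Q/I152L/F46L, preincubated 10 min at 40° C with compounds (1% DMSO) in PBS. Quench read every 0.4 s after injecting 140 mM SCN- with 10 μM ionomycin; % inhibition from the 3.6–7.6 s fluorescence difference, normalised to no-ionomycin (100%) and ionomycin-only (0%) wells, duplicate or triplicate.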

human ANO6 [2] = molecular target: T1, human ANO6; assay: LACT C2 assay (phosphatidylserine scramblase function assay); format: cell-based; settings: FRT cells expressing human ANO6, 10 μM ionomycin; for inhibition at 0.1 µM: test compound 100 nM, read-out: Inhibition Level 100 nM; for inhibition at 1 µM: test compound 1 μM, read-out: Inhibition Level 1 μM
In short: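 Inhibition was normalised between ionomycin-only (0%) and untreated (100%) wells, with triplicates averaged. Readout was background-corrected Lact-C2-GFP (500 nM) fluorescence from imaged cells. The cells were FRT cells stably expressing human ANO6, given compound at 1% DMSO for 10 min before a 10 min 10 μM ionomycin challenge.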

inhibition at 1 µM (human ANO6 [1]) | inhibition at 30 µM (human ANO6 [1]) | inhibition at 0.1 µM (human ANO6 [2]) | inhibition at 1 µM (human ANO6 [2]) | SMILES
≥ 60% | ≥ 60% | < 30% | 30 to 60% | COc1cccc(CNC(=O)c2cccc(Nc3ccc(-c4ccccc4)nn3)c2)c1 [Compound A76]
30 to 60% | ≥ 60% | < 30% | < 30% | O=C(NCc1ccc2c(c1)OCO2)c1cccc(Nc2ccc(-c3ccccc3)nn2)c1 [Compound A64]
≥ 60% | ≥ 60% | < 30% | < 30% | O=C(NCc1ccccc1)c1cccc(Nc2ccc(-c3cccc(F)c3)nn2)c1 [Compound A34]
≥ 60% | ≥ 60% | < 30% | < 30% | O=C(NC1CCCCC1)c1cccc(Nc2ccc(-c3ccc(F)cc3)nn2)c1 [Compound A2]
≥ 60% | ≥ 60% | < 30% | 30 to 60% | O=C(NCCc1ccccc1)c1cccc(Nc2ccc(-c3ccccc3)nn2)c1 [Compound A74]
≥ 60% | ≥ 60% | < 30% | 30 to 60% | CC(C)CCNC(=O)c1cccc(Nc2ccc(-c3ccc(F)cc3)nn2)c1 [Compound A13]
≥ 60% | ≥ 60% |  | < 30% | O=C(NC1CC1)c1cccc(Nc2ccc(-c3ccccc3)nn2)c1 [Compound 38, N-cyclopropyl-3-[(6-phenylpyridazin-3-yl)amino]benzamide]
30 to 60% | ≥ 60% | < 30% | 30 to 60% | CSc1ccc(CNC(=O)c2cccc(Nc3ccc(-c4ccccc4)nn3)c2)cc1 [Compound A44]
< 30% |  | < 30% | < 30% | O=C(NCCN1CC2CCC1C2)c1cccc(Nc2ncc(-c3ccccc3)cn2)c1 (centres unmarked) [Compound 105, N-(2-{2-azabicyclo[2.2.1]heptan-2-yl}ethyl)-3-[(5-phenylpyrimidin-2-yl)amino]benzamide]
30 to 60% | ≥ 60% | < 30% | < 30% | O=C(NCc1ccc(Br)cc1)c1cccc(Nc2ccc(-c3ccc(F)cc3)nn2)c1 [Compound A26]
30 to 60% |  |  | 30 to 60% | Cc1ccc(CNC(=O)c2cccc(Nc3ncc(-c4cccs4)cn3)c2)o1 [Compound 110, N-[(5-methylfuran-2-yl)methyl]-3-{[5-(thiophen-2-yl)pyrimidin-2-yl]amino}benzamide]
≥ 60% | ≥ 60% | < 30% | < 30% | CCN(CC)c1ccc(CNC(=O)c2cccc(Nc3ccc(-c4ccccc4)nn3)c2)cc1 [Compound A55]
≥ 60% |  |  | < 30% | Cc1ccc(CNC(=O)c2cccc(Nc3cnc(-c4cccc(F)c4)cn3)c2)o1 [Compound 58, 3-{[5-(3-fluorophenyl)pyrazin-2-yl]amino}-N-[(5-methylfuran-2-yl)methyl]benzamide]
30 to 60% | ≥ 60% | < 30% | 30 to 60% | O=C(NC1CCCCC1)c1cccc(Nc2ccc(-c3ccccc3)nn2)c1 [Compound A62]
30 to 60% |  |  | < 30% | O=C(NCCc1cc(F)cc(F)c1)c1cccc(Nc2ncc(-c3ccccc3)cn2)c1 [Compound 82, N-[2-(3,5-difluorophenyl)ethyl]-3-[(5-phenylpyrimidin-2-yl)amino]benzamide]
≥ 60% |  | < 30% | 30 to 60% | O=C(Nc1ccc(N2CCOCC2)cc1)c1cccc(Nc2ncc(-c3cccc(F)c3)cn2)c1 [Compound A84]
≥ 60% | ≥ 60% | < 30% | ≥ 60% | O=C(NCC1CCCCC1)c1cccc(Nc2ccc(-c3ccccc3)nn2)c1 [Compound 31, N-(cyclohexylmethyl)-3-[(6-phenylpyridazin-3-yl)amino]benzamide]
30 to 60% | ≥ 60% |  | < 30% | CNC(=O)c1cccc(Nc2ccc(-c3ccccc3)nn2)c1 [Compound 41, N-methyl-3-[(6-phenylpyridazin-3-yl)amino]benzamide]
30 to 60% | ≥ 60% | < 30% | < 30% | Cc1ccc(CNC(=O)c2cccc(Nc3ccc(-c4ccc(F)cc4)nn3)c2)o1 [Compound A1]
30 to 60% |  |  | 30 to 60% | O=C(NCc1ccco1)c1cccc(Nc2ccc(-c3ccccc3)nn2)c1 [Compound 46, N-[(furan-2-yl)methyl]-3-[(6-phenylpyridazin-3-yl)amino]benzamide]
30 to 60% | ≥ 60% |  | 30 to 60% | O=C(NC1CCC1)c1cccc(Nc2ccc(-c3ccccc3)nn2)c1 [Compound 25, N-cyclobutyl-3-[(6-phenylpyridazin-3-yl)amino]benzamide]
30 to 60% | ≥ 60% |  | < 30% | CC(C)(C)CNC(=O)c1cccc(Nc2ccc(-c3ccccc3)nn2)c1 [Compound 24, N-(2,2-dimethylpropyl)-3-[(6-phenylpyridazin-3-yl)amino]benzamide]
≥ 60% | ≥ 60% | < 30% | < 30% | Cc1ccc(C(C)NC(=O)c2cccc(Nc3ccc(-c4ccccc4)nn3)c2)cc1 (centres unmarked) [Compound A57]
≥ 60% | ≥ 60% | 30 to 60% | 30 to 60% | O=C(NCCCc1ccccc1)c1cccc(Nc2ccc(-c3ccccc3)nn2)c1 [Compound A51]
≥ 60% | ≥ 60% | < 30% | < 30% | Cc1cccc(-c2ccc(Nc3cccc(C(=O)NCC(C)C)c3)nn2)c1 [Compound A32]
≥ 60% | ≥ 60% | < 30% | < 30% | CCCCNC(=O)c1cccc(Nc2ccc(-c3ccc(F)cc3)nn2)c1 [Compound A10]
≥ 60% | ≥ 60% | < 30% | ≥ 60% | Cc1ccc(CNC(=O)c2cccc(Nc3ccc(-c4ccccc4)cn3)c2)o1 [Compound 4, N-[(5-methylfuran-2-yl)methyl]-3-[(5-phenylpyridin-2-yl)amino]benzamide]
≥ 60% |  | 30 to 60% | ≥ 60% | O=C(NCCc1ccccc1)c1cccc(Nc2cnc(-c3ccccc3)cn2)c1 [Compound 51, N-(2-phenylethyl)-3-[(5-phenylpyrazin-2-yl)amino]benzamide]

SMILES | inhibition at 1 µM (human ANO6 [1]) | inhibition at 30 µM (human ANO6 [1]) | inhibition at 0.1 µM (human ANO6 [2]) | inhibition at 1 µM (human ANO6 [2])
O=C(NCCCc1ccccc1)c1cccc(Nc2ccc(-c3ccccc3)cc2)c1 [Compound 53, 3-({[1,1′-biphenyl]-4-yl}amino)-N-(3-phenylpropyl)benzamide] | ≥ 60% |  |  | ≥ 60%
Cc1ccc(CNC(=O)c2cccc(Nc3ccc(-c4ccc(Cl)cc4)nn3)c2)o1 [Compound 75, 3-{[6-(4-chlorophenyl)pyridazin-3-yl]amino}-N-[(5-methylfuran-2-yl)methyl]benzamide] | 30 to 60% |  |  | 30 to 60%
